Measured values as given in ChEMBL document CHEMBL6092180 (Eur J Med Chem, 2024).
In brackets after ≈: the same amount, converted by molar mass. Activity calls are given as the source filed them. No cut-off for these calls is given here.

Tests used:
Candida albicans [1] = experiment: Antifungal activity against Candida albicans SC5314 assessed as inhibition of fungal growth by CLSI M27-A3 guidelines based method; assay type: functional
Candida albicans [2] = experiment: Antifungal activity against Candida albicans GIM 2.194 assessed as inhibition of fungal growth by CLSI M27-A3 guidelines based method; assay type: functional
Candida tropicalis = experiment: Antifungal activity against Candida tropicalis GIM 2.183 assessed as inhibition of fungal growth by CLSI M27-A3 guidelines based method; assay type: functional
Candida parapsilosis = experiment: Antifungal activity against Candida parapsilosis GIM 2.190 assessed as inhibition of fungal growth by CLSI M27-A3 guidelines based method; assay type: functional; conditions: Lodderomyces parapsilosis
Nakaseomyces glabratus = experiment: Antifungal activity against Candida glabrata assessed as inhibition of fungal growth by CLSI M27-A3 guidelines based method; assay type: functional
Pichia kudriavzevii = experiment: Antifungal activity against Candida krusei GIM 2.1 assessed as inhibition of fungal growth by CLSI M27-A3 guidelines based method; assay type: functional
Cryptococcus neoformans = experiment: Antifungal activity against Cryptococcus neoformans CGMCC 2.3161 assessed as inhibition of fungal growth by CLSI M27-A3 guidelines based method; assay type: functional
Aspergillus fumigatus = experiment: Antifungal activity against Aspergillus fumigatus cgmcc 3.7795 assessed as inhibition of fungal growth by CLSI M27-A3 guidelines based method; assay type: functional
Candida albicans [3] = experiment: Antifungal activity against fluconazole-resistant Candida albicans CaR assessed as inhibition of fungal growth by CLSI M27-A3 guidelines based method; assay type: functional
Candida albicans [4] = experiment: Antifungal activity against fluconazole and iodiconazole resistant Candida albicans clinical isolate 17# assessed as inhibition of fungal growth by CLSI M27-A3 guidelines based method; assay type: functional
Candida albicans [5] = experiment: Antifungal activity against fluconazole-resistant Candida albicans clinical isolate 901 assessed as inhibition of fungal growth by CLSI M27-A3 guidelines based method; assay type: functional
Candida albicans [6] = experiment: Antifungal activity against fluconazole-resistant Candida albicans clinical isolate 904 assessed as inhibition of fungal growth by CLSI M27-A3 guidelines based method; assay type: functional
Candida albicans [7] = experiment: Antifungal activity against fluconazole-resistant Candida albicans clinical isolate 632 assessed as inhibition of fungal growth by CLSI M27-A3 guidelines based method; assay type: functional
Candida albicans [8] = experiment: Antifungal activity against fluconazole-resistant Candida albicans clinical isolate 100 assessed as inhibition of fungal growth by CLSI M27-A3 guidelines based method; assay type: functional
Candida albicans [9] = experiment: Antifungal activity against fluconazole-resistant Candida albicans clinical isolate 103 assessed as inhibition of fungal growth by CLSI M27-A3 guidelines based method; assay type: functional
Candida albicans [10] = experiment: Antifungal activity against fluconazole-resistant Candida albicans clinical isolate 311 assessed as inhibition of fungal growth by CLSI M27-A3 guidelines based method; assay type: functional
[11] = Metabolic stability in human liver microsomes assessed as half-life preincubated for 10 mins followed by NADPH addition and measured after 60 mins by LC-MS/MS analysis; assay type: ADME, Microsome; conditions: time 70 min
[12] = Metabolic stability in human liver microsomes assessed as parent compound remaining preincubated for 10 mins followed by NADPH addition and measured after 60 mins by LC-MS/MS analysis; assay type: ADME, Microsome; conditions: time 70 min, read-out: Stability
Candida albicans [13] = experiment: Fungicidal activity against Candida albicans SC5314 incubated for 48 hrs by PDA plate based method; assay type: functional
Candida albicans [14] = experiment: Selectivity ratio of MFC for fungicidal activity against Candida albicans SC5314 to MIC80 for antifungal activity against Candida albicans SC5314; assay type: functional
Candida albicans [15] = experiment: Fungicidal activity against fluconazole and iodiconazole resistant Candida albicans clinical isolate 17# incubated for 48 hrs by PDA plate based method; assay type: functional
Candida albicans [16] = experiment: Fungicidal activity fluconazole and iodiconazole resistant Candida albicans clinical isolate 17# assessed as decrease in number of fungi at 8 times of MIC measured within 24 hrs by time-kill kinetics assay; assay type: functional, organism-based
Candida albicans [17] = experiment: Antibiofilm activity against fluconazole-resistant Candida albicans CPCC400616 assessed as inhibition of metabolic activity of biofilm measured after 6 hrs by XTT reduction assay; assay type: functional
Candida albicans [18] = experiment: Antibiofilm activity against fluconazole-resistant Candida albicans CPCC400616 assessed as inhibition of metabolic activity of biofilm measured after 24 hrs by XTT reduction assay; assay type: functional
[19] = Cytotoxicity against human NCI-H460 cells assessed as inhibition of cell growth incubated for 72 hrs by MTT assay; assay type: toxicity, cell-based
[20] = Cytotoxicity against human OVCAR-3 cells assessed as inhibition of cell growth incubated for 72 hrs by MTT assay; assay type: toxicity, cell-based
[21] = Cytotoxicity against HUVEC cells assessed as inhibition of cell growth incubated for 72 hrs by MTT assay; assay type: toxicity, cell-based; conditions: human
[22] = Cytotoxicity against HEK293T cells assessed as inhibition of cell growth incubated for 72 hrs by MTT assay; assay type: toxicity, cell-based, HEK-293T; conditions: human

SMILES | MIC80 (Candida albicans [1]) [µg/mL] | MIC80 (Candida albicans [2]) [µg/mL] | MIC80 (Candida tropicalis) [µg/mL] | MIC80 (Candida parapsilosis) [µg/mL] | MIC80 (Nakaseomyces glabratus) [µg/mL] | MIC80 (Pichia kudriavzevii) [µg/mL] | MIC80 (Cryptococcus neoformans) [µg/mL] | MIC80 (Aspergillus fumigatus) [µg/mL] | MIC80 (Candida albicans [3]) [µg/mL] | MIC80 (Candida albicans [4]) [µg/mL] | MIC80 (Candida albicans [5]) [µg/mL] | MIC80 (Candida albicans [6]) [µg/mL] | MIC80 (Candida albicans [7]) [µg/mL] | MIC80 (Candida albicans [8]) [µg/mL] | MIC80 (Candida albicans [9]) [µg/mL] | MIC80 (Candida albicans [10]) [µg/mL] | half-life [11] [min] | remaining at 1 h [12] [%] | further results
C[C@@H](N(C)Cc1ccc(C#Cc2cc(F)c(Cl)cc2F)cc1)[C@](O)(Cn1cncn1)c1ccc(F)cc1F | 0.013 (≈ 0.0239 µM) | 0.05 (≈ 0.0921 µM) | 0.006 (≈ 0.0111 µM) | 0.006 (≈ 0.0111 µM) | 0.05 (≈ 0.0921 µM) | 0.05 (≈ 0.0921 µM) | 0.013 (≈ 0.0239 µM) | 0.2 (≈ 0.368 µM) | 0.5 (≈ 0.921 µM) | 0.5 (≈ 0.921 µM) | 4 (≈ 7.37 µM) | 32 (≈ 58.9 µM) | 4 (≈ 7.37 µM) | 4 (≈ 7.37 µM) | 8 (≈ 14.7 µM) | 32 (≈ 58.9 µM) | – | – | –
CN(Cc1ccc(C#Cc2ccc(F)cc2F)cc1)CC(O)(Cn1cncn1)c1ccc(F)cc1F (centres undefined) | 0.006 (≈ 0.0121 µM) | 0.006 (≈ 0.0121 µM) | 0.006 (≈ 0.0121 µM) | 0.006 (≈ 0.0121 µM) | 0.01 (≈ 0.0202 µM) | 0.01 (≈ 0.0202 µM) | 0.013 (≈ 0.0263 µM) | – | – | – | – | – | – | – | – | – | 26.3 | 20.9 | –
CN(Cc1ccc(I)cc1)CC(O)(Cn1cncn1)c1ccc(F)cc1F (centres undefined) | 0.013 (≈ 0.0268 µM) | 0.025 (≈ 0.0516 µM) | 0.013 (≈ 0.0268 µM) | 0.025 (≈ 0.0516 µM) | 0.2 (≈ 0.413 µM) | 0.2 (≈ 0.413 µM) | 0.1 (≈ 0.206 µM) | 0.25 (≈ 0.516 µM) | 2 (≈ 4.13 µM) | 0.25 (≈ 0.516 µM) | > 64 | 8 (≈ 16.5 µM) | 16 (≈ 33 µM) | 2 (≈ 4.13 µM) | 32 (≈ 66.1 µM) | > 64 | 20.4 | 13.1 | MFC (Candida albicans [13]): 32 µg/mL (≈ 66.1 µM); Selectivity ratio (Candida albicans [14]): >256; MFC (Candida albicans [15]): 32 µg/mL (≈ 66.1 µM); Activity (Candida albicans [16]): inactive; MIC50 (Candida albicans [17]): 8 µg/mL (≈ 16.5 µM); MIC50 (Candida albicans [18]): 16 µg/mL (≈ 33 µM); IC50 at 72 h [19]: > 10 µM; IC50 at 72 h [20]: > 10 µM; IC50 at 72 h [21]: > 10 µM; IC50 at 72 h [22]: > 10 µM
C[C@@H](N(C)Cc1ccc(C#Cc2ccc(F)c(F)c2)cc1)[C@](O)(Cn1cncn1)c1ccc(F)cc1F | 0.013 (≈ 0.0256 µM) | 0.025 (≈ 0.0492 µM) | 0.006 (≈ 0.0118 µM) | 0.006 (≈ 0.0118 µM) | 0.05 (≈ 0.0983 µM) | 0.03 (≈ 0.059 µM) | 0.05 (≈ 0.0983 µM) | 0.1 (≈ 0.197 µM) | 0.25 (≈ 0.492 µM) | 0.5 (≈ 0.983 µM) | 8 (≈ 15.7 µM) | 16 (≈ 31.5 µM) | 4 (≈ 7.87 µM) | 8 (≈ 15.7 µM) | 8 (≈ 15.7 µM) | 8 (≈ 15.7 µM) | – | – | –
